The conditions of series [1]: cited from earlier work.
A further series has as its system D2R. Particulars: similar to aripiprazole; cited from earlier work.
The target of a further series is 5-HT7 receptor (Homo sapiens, UniProt P34969).
The target in another series is 5-HT1A receptor (Homo sapiens, UniProt P08908).
The target in a further series is D1 receptor (Homo sapiens, UniProt P21728). Briefly: biochemical.

Molecules are shown by their SMILES.

5-HT7 receptor, sequence (P34969 whole entry): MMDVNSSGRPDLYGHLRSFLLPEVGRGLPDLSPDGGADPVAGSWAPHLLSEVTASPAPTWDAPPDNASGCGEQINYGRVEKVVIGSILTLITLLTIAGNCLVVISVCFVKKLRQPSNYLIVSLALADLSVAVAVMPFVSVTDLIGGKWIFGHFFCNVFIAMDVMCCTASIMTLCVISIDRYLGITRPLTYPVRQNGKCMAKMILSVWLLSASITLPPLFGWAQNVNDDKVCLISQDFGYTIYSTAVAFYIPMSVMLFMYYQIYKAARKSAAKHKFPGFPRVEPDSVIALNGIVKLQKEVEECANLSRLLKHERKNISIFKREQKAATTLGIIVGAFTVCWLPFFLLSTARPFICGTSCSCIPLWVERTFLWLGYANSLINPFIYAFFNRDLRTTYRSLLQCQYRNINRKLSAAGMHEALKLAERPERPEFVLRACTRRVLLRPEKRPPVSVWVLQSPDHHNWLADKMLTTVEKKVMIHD
5-HT1A receptor, sequence (P08908 whole entry): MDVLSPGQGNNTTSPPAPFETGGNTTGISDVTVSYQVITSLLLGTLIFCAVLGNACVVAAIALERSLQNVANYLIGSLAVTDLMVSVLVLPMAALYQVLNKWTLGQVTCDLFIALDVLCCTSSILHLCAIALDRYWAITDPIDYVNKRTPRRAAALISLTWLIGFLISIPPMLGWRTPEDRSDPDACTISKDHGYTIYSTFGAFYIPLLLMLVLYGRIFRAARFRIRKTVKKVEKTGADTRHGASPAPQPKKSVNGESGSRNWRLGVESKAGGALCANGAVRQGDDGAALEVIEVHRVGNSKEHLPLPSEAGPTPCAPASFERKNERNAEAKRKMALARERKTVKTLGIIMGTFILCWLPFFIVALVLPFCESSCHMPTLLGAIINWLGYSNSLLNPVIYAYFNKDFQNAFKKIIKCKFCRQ
D1 receptor, sequence (P21728 whole entry): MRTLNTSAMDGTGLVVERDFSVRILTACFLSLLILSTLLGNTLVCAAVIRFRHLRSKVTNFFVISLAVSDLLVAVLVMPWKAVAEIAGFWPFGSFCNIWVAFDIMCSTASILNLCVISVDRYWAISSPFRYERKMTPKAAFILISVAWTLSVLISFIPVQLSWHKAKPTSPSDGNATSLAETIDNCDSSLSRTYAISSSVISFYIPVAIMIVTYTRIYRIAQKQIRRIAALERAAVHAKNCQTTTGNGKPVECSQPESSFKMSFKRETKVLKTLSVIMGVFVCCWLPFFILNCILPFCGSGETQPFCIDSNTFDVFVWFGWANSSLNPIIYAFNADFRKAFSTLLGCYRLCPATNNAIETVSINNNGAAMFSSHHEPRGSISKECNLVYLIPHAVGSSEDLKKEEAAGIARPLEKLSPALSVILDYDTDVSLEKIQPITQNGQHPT

As for `Fc1ccc(CCCCN2CCN(c3ccccn3)CC2)cc1` [Compound 5, 1-(4-(4-fluorophenyl)butyl)-4-(pyridin-2-yl)piperazine], the “blood brain barrier (BBB) permeability” value in series [1] is given as “high”. Also, in the series with D2R, the “signaling at the D2R” value is “activates both G-protein and β-arrestin signaling”. On to `Cc1ccc(N2CCN(CCCCc3ccc(F)cc3)CC2)nc1` [Compound 9, 1-(4-(4-fluorophenyl)butyl)-4-(5-methylpyridin-2-yl)piperazine], for which the “mean pKi ± SEM 5-HT7” value at 5-HT7 receptor was found to be 7.2 ± 0.1.

Turning to `O=C1c2ccc(F)cc2CC1CCN1CCCN(c2ccccn2)CC1` (stereo not drawn) [Compound 14], the “mean pKi ± SEM 5-HT1A” value at 5-HT1A receptor is listed as 6.1 ± 0.1. As a reminder, the Ki is a measure of affinity in units of concentration, obtained from inhibition or displacement. As for `Fc1ccc(CCCCN2CCN(c3cccnc3)CC2)cc1.O=C(O)C(=O)O` [Compound 21, 1-(4-(4-fluorophenyl)butyl)-4-(pyridin-3-yl)piperazine oxalate], at 5-HT7 receptor, the “mean pKi ± SEM 5-HT7” value turned out to be 6.63 ± 0.09. At D1 receptor, this molecule showed an inhibition constant (Ki) of over 2000 nM.
